Drawing on patent US10815210B2, “Benzocyclobutane derivatives useful as dual SGLT1 / SGLT2 modulators” (Janssen Pharmaceutica NV, priority 2016, dated 2020), this text covers IC50 and inhibition for 21 compounds.

For experiment [1], the target named is T1, human SGLT2 (Homo sapiens, UniProt P31639).
T1 construct: expressed in transfected cells; host or cells: CHO-K1
T1 sequence (P31639 1-672): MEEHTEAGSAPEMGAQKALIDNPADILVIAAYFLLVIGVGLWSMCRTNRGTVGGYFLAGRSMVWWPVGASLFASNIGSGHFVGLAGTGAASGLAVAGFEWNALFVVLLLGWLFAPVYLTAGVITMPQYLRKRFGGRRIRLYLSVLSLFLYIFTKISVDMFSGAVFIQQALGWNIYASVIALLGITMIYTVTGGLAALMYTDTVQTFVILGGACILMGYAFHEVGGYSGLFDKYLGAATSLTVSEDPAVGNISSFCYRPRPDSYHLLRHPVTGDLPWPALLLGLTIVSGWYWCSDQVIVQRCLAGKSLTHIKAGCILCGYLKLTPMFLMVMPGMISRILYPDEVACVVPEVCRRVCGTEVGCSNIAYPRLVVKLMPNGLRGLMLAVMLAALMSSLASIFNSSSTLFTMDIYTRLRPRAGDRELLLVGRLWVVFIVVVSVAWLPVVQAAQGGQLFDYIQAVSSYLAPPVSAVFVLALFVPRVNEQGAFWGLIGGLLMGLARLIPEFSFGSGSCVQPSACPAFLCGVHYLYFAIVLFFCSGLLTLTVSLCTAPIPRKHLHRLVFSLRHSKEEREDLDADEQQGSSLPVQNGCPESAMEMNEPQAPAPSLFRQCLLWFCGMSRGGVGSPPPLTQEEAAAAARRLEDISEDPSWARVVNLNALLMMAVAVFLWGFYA
The experiment can be described thus: SGLT2 assay: Na-dependent 14C-AMG uptake in CHO-K1 cells stably expressing human SGLT2. The class given is cell-based. The settings on record: for IC50: 500 μM AMG, 2 hours at 37° C. As for the experimental part:
(§1) SGLT1 and SGLT2 were cloned in form of cDNA from human small intestine (Genbank M24847), and from human kidney (Genbank M95549), respectively. Subsequently, each full cDNA was subcloned into pcDNA with each construct's integrity verified through follow-on sequencing. To generate CHO-K1 cells that stably express human SGLT1 or human SGLT2, CHO-K1 cells were transfected using DMRIE-C reagent (Life Technologies, Gaithersburg, Md.). Transfected cells were then selected in the presence of 500 μg/ml of the Geneticin (G418 Cellgro Catalog No. 30234-CI)
(§2) Individual clones were then characterized using the following cell-based assay for sodium-dependent glucose transport:
(§3) Inhibition of SGLT1 and SGLT2 activity was assessed in CHO K1 cells stably expressing either human SGLT1 or SGLT2, using the SGLT specific glucose analog methyl-glucopyranoside (Sigma Catalog No. M-9376). Cells were plated (45,000 cells/well) in white wall 96-well plates (COSTAR, Cat#3903) for 24 hours in growth medium, then a final concentration of 10 mM Na-Butyrate (ALDRICH Cat#30341-0) was added. The cells were incubated for 24 hours. On the day of the assay, cells were rinsed and treated with test compounds (at concentrations of 0.001 μM to 10 μM) in assay buffer (50 mM HEPES, 20 mM Tris base, 5 mM KCl, 1 mM MgCl2, 1 mM CaCl2 and 137 mM NaCl, pH 7.4) for 10 minutes. Cells were then incubated with ^14C-a-methyl-d-glucopyranoside (AMG, Amersham Catalog No. CFB 76), using 0.07 μCi per well in 500 μM AMG final concentration. The cells were incubated for 2 hours at 37° C. with 5% CO2 and washed two times with ice-cold Phosphate Buffer Solution (Cellgro Catalog No. 21030-CV). The cells were then solubilized by adding 60 μl of MICROSCINT™20 and the Na-dependent ^14C-AMG uptake was quantified by measuring radioactivity. Plates were counted in a TopCount (Packard, Meriden, Conn.)

Experiment [2] concerns the target T2, human SGLT1 (Homo sapiens, UniProt P13866).
T2 construct: expressed in transfected cells; host or cells: CHO-K1
T2 sequence (P13866 1-664): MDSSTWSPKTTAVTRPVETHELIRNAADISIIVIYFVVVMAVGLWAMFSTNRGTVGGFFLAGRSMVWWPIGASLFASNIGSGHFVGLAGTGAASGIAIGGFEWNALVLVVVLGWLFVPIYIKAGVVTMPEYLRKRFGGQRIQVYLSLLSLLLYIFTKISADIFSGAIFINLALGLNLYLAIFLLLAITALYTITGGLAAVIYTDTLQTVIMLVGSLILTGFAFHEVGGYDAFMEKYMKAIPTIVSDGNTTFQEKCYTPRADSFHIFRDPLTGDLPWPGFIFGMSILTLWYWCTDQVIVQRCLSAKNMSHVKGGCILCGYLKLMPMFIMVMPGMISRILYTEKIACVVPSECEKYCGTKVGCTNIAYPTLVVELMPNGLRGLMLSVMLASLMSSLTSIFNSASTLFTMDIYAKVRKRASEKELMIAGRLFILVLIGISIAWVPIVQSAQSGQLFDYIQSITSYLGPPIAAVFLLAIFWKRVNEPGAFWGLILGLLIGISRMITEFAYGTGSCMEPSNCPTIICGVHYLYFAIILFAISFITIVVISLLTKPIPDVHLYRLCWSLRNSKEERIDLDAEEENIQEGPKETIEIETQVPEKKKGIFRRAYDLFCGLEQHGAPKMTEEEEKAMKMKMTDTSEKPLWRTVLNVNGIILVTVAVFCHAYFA
The experiment can be described thus: SGLT1 assay: Na-dependent 14C-AMG uptake in CHO-K1 cells stably expressing human SGLT1. The class given is cell-based. The settings on record: for IC50: 500 μM AMG, 2 hours at 37° C. The procedure:
as §1, §2, §3

In general, IC50 refers to the concentration that gives 50% inhibition. A high value points to lower potency. In the case of `[2H]C1([2H])Cc2ccc(Cc3cc([C@@H]4O[C@H](CO)[C@@H](O)[C@H](O)[C@H]4O)c(F)cc3OC)cc21` [Compound 72, (2S,3R,4R,5S,6R)-2-{5-[(8,8-dideuterio)bicyclo[4.2.0]octa-1(6),2,4-trien-3-ylmethyl]-2-fluoro-4-methoxyphenyl}-6-(hydroxymethyl)oxane-3,4,5-triol], the IC50 came to 3 nM in experiment [1] and 24 nM in experiment [2].

For `CCc1cc(OC2CC2)c([C@@H]2O[C@H](CO)[C@@H](O)[C@H](O)[C@H]2O)cc1Cc1ccc2c(c1)CC2` [Compound 116], the IC50 is 2 nM in experiment [1] and 13 nM in experiment [2].

As to `CCOc1cc(CC)c(Cc2ccc3c(c2)CC3)cc1[C@@H]1O[C@H](CO)[C@@H](O)[C@H](O)[C@H]1O` [Compound 105], the half-maximal inhibitory concentration (IC50) in experiment [1] came out at 1 nM; in experiment [2] it was 32 nM.

As to `COc1cc(Cl)c(Cc2ccc3c(c2)CC3)cc1[C@@H]1O[C@H](CO)C(F)(F)[C@H](O)[C@H]1O` [Compound 103], the 50% inhibitory concentration (IC50) is 2 nM in experiment [1] and 13 nM in experiment [2].

Regarding `[2H]C1([2H])Cc2ccc(Cc3cc([C@@H]4O[C@H](CO)[C@@H](O)[C@H](O)[C@H]4O)c(OC)cc3OC)cc21` (single isomer, unassigned) [Compound 68], the IC50 came to 2 nM in experiment [1] and 41 nM in experiment [2].

As to `COc1cc(Cl)c(Cc2ccc3c(c2)CC3)cc1[C@@H]1O[C@H](CO)[C@@H](F)[C@H](O)[C@H]1O` [Compound 133], the IC50 in experiment [1] was 1 nM; in experiment [2] it was 15 nM.

In general, inhibition refers to the share of the control response that was lost under treatment. A low value points to a response near the control. Regarding `COc1cc(C2CC2)c(Cc2ccc3c(c2)CC3)cc1[C@@H]1O[C@H](CO)[C@@H](O)[C@H](O)[C@H]1O` [Compound 15, (2S,3R,4R,5S,6R)-2-(5-(bicyclo[4.2.0]octa-1(6),2,4-trien-3-ylmethyl)-4-cyclopropyl-2-methoxyphenyl)-6-(hydroxymethyl)oxane-3,4,5-triol], at 0.03 µM the inhibition in experiment [1] was 31%. Besides, 0.3 µM produced 67% inhibition in experiment [2].

With `[2H]C([2H])(c1ccc2c(c1)CC2)c1cc([C@@H]2O[C@H](CO)[C@@H](O)[C@H](O)[C@H]2O)ccc1CC` [Compound 58, (2S,3R,4R,5S,6R)-2-(3-[bicyclo[4.2.0]octa-(6),2,4-trien-3-yl(dideuterium)methyl]-4-ethylphenyl)-6-(hydroxymethyl)oxane-3,4,5-triol], the IC50 in experiment [1] turned out to be 2 nM; in experiment [2], 25 nM.

Turning to `OC[C@H]1O[C@@H](c2cc(Cc3ccc4c(c3)CC4)c(Cl)cc2OC2CC2)[C@H](O)[C@@H](O)[C@@H]1O` [Compound 117], the half-maximal inhibitory concentration (IC50) in experiment [1] worked out at 2 nM; in experiment [2], 50 nM.

Take `Cc1c(Cc2ccc3c(c2)CC3)ccc(O)c1[C@@H]1O[C@H](CO)[C@@H](O)[C@H](O)[C@H]1O` [Compound 28, (2S,3R,4R,5S,6R)-2-(3-((1,2-dihydrocyclobutabenzen-4-yl)methyl)-6-hydroxy-2-methylphenyl)-6-(hydroxymethyl)-tetrahydro-2H-pyran-3,4,5-triol]: the inhibition at 0.03 µM in experiment [1] is 40%. The inhibition at 0.3 µM in experiment [2] was found to be 50%.

As for `Cc1cc(O)c([C@@H]2O[C@H](CO)[C@@H](F)[C@H](O)[C@H]2O)cc1Cc1ccc2c(c1)CC2` [Compound 130], the 50% inhibitory concentration (IC50) is 1 nM in experiment [1] and 15 nM in experiment [2].

With `[2H]C([2H])(c1ccc2c(c1)CC2)c1cc([C@@H]2O[C@H](CO)[C@@H](O)[C@H](O)[C@H]2O)ccc1OC` (single isomer, unassigned) [Compound 57], the results for the concentration for half-maximal inhibition (IC50) in experiment [1] and in experiment [2] were 6 nM and 44 nM, respectively.

Take `CCOc1cc(Cl)c(Cc2ccc3c(c2)CC3)cc1[C@@H]1O[C@H](CO)[C@@H](F)[C@H](O)[C@H]1O` [Compound 132]: the figures for the half-inhibitory concentration (IC50) in experiment [1] and in experiment [2] were 1 nM and 18 nM, respectively.

Turning to `[2H]C1([2H])Cc2ccc(Cc3cc([C@@H]4O[C@H](CO)[C@@H](O)[C@H](O)[C@H]4O)c(OC)cc3C)cc21` [Compound 63, (2S,3R,4R,5S,6R)-2-(5-((2,2-dideuterium-1,2-dihydrocyclobutabenzen-4-yl)methyl)-2-methoxy-4-methylphenyl)-6-(hydroxymethyl)-tetrahydro-2H-pyran-3,4,5-triol], the IC50 worked out at 1 nM in experiment [1] and 84 nM in experiment [2].

As for `Cc1cc(O)c([C@@H]2O[C@H](CO)[C@@H](O)[C@H](O)[C@H]2O)cc1Cc1ccc2c(c1)CC2` [Compound 6, (2S,3R,4R,5S,6R)-2-(5-((1,2-dihydrocyclobutabenzen-4-yl)methyl)-2-hydroxy-4-methylphenyl)-6-(hydroxymethyl)-tetrahydro-2H-pyran-3,4,5-triol], the IC50 in experiment [1] came out at 1 nM; in experiment [2], 4 nM.

In experiment [1], `COc1cc(C#N)c(Cc2ccc3c(c2)CC3)cc1[C@@H]1O[C@H](CO)[C@@H](O)[C@H](O)[C@H]1O` [Compound 18, 2-((1,2-dihydrocyclobutabenzen-4-yl)methyl)-5-methoxy-4-((2S,3R,4R,5S,6R)-3,4,8-trihydroxy-6-(hydroxymethyl)-tetrahydro-2H-pyran-2-yl)benzonitrile] had an inhibition at 0.03 µM of 74%. In experiment [2], at 0.3 µM the inhibition was 25%.

On to `OC[C@H]1O[C@@H](c2ccc(Cl)c(Cc3ccc4c(c3)CC4)c2)[C@H](O)[C@@H](O)[C@@H]1F` [Compound 134], for which the figures for the IC50 in experiment [1] and in experiment [2] were 2 nM and 36 nM, respectively.

Turning to `COc1cc(O)c([C@@H]2O[C@H](CO)C(F)(F)[C@H](O)[C@H]2O)cc1Cc1ccc2c(c1)CC2` [Compound 107], the half-inhibitory concentration (IC50) is 1 nM in experiment [1] and 10 nM in experiment [2].

As to `N#Cc1ccc([C@@H]2O[C@H](CO)[C@@H](O)[C@H](O)[C@H]2O)cc1Cc1ccc2c(c1)CC2` [Compound 16, 2-((1,2-dihydrocyclobutabenzen-4-yl)methyl)-4-((2S,3R,4R,5S,6R)-3,4,5-trihydroxy-6-(hydroxymethyl)-tetrahydro-2H-pyran-2-yl)benzonitrile], in experiment [1], the inhibition at 0.03 µM came to 43%. The inhibition at 0.3 µM in experiment [2] is 0%.

For the compound `[2H]C1([2H])Cc2cc(Cc3cc([C@@H]4O[C@H](CO)[C@@H](O)[C@H](O)[C@H]4O)c(OC)cc3Cl)ccc21` [Compound 83, (2S,3R,4R,5S,6R)-2-(5-{[(7,7-dideuterium)bicyclo[4.2.0]octa-1(6),2,4-trien-3-yl]methyl}-4-chloro-2-methoxyphenyl)-6-(hydroxymethyl)oxane-3,4,5-triol], the IC50 in experiment [1] came out at 1 nM; in experiment [2], 64 nM.

As for `COc1cc(C)c(Cc2ccc3c(c2)CC3)cc1[C@@H]1O[C@H](CO)C(F)(F)[C@H](O)[C@H]1O` [Compound 93, (2S,3R,4R,6R)-2-(5-(bicyclo[4.2.0]octa-1(6),2,4-trien-3-ylmethyl)-2-methoxy-4-methylphenyl)-5,5-difluoro-6-(hydroxymethyl)tetrahydro-2H-pyran-3,4-diol], the IC50 amounted to 3 nM in experiment [1] and 95 nM in experiment [2].
